Assay: mn = molality of the nth substance listed, in mol/kg
Conditions: for surface tension liquid-gas: Pendant drop shape; for electrical conductivity: Liquid, Digital conductivity meter

CCCCCCCCCCCC[N+](C)(CCO)CCO.[Br-] [N,N-bis(2-hydroxyethyl)-N-methyldodecan-1-aminium bromide] + O
Conditions | electrical conductivity [S/m] | surface tension liquid-gas [mN/m]
298.15 K, m1 = 0.00097 | – | 68.8
298.15 K, m1 = 0.00193 | – | 62.75
298.15 K, m1 = 0.00387 | – | 54.86
298.15 K, m1 = 0.0058 | – | 48.7
298.15 K, m1 = 0.00773 | – | 45.46
298.15 K, m1 = 0.0095 | 0.0822 | –
298.15 K, m1 = 0.00967 | – | 41.58
298.15 K, m1 = 0.00997 | 0.0859 | –
298.15 K, m1 = 0.0105 | 0.0903 | –
298.15 K, m1 = 0.01108 | 0.0948 | –
298.15 K, m1 = 0.0116 | – | 39.54
298.15 K, m1 = 0.01174 | 0.0998 | –
298.15 K, m1 = 0.01247 | 0.1051 | –
298.15 K, m1 = 0.01257 | – | 38.9
298.15 K, m1 = 0.01287 | 0.1075 | –
298.15 K, m1 = 0.0133 | 0.1097 | –
298.15 K, m1 = 0.01376 | 0.1114 | –
298.15 K, m1 = 0.01425 | 0.1126 | –
298.15 K, m1 = 0.0145 | – | 38.74
298.15 K, m1 = 0.01478 | 0.1144 | –
298.15 K, m1 = 0.01535 | 0.1155 | –
298.15 K, m1 = 0.01596 | 0.1171 | –
298.15 K, m1 = 0.01644 | – | 38.53
298.15 K, m1 = 0.01663 | 0.119 | –
298.15 K, m1 = 0.01735 | 0.1209 | –
298.15 K, m1 = 0.01814 | 0.1227 | –
298.15 K, m1 = 0.01901 | 0.1245 | –
298.15 K, m1 = 0.01956 | – | 38.53
298.15 K, m1 = 0.01996 | 0.1268 | –
298.15 K, m1 = 0.0291 | – | 38.45
298.15 K, m1 = 0.04849 | – | 38.36
303.15 K, m1 = 0.00949 | 0.091 | –
303.15 K, m1 = 0.00996 | 0.0952 | –
303.15 K, m1 = 0.01049 | 0.0996 | –
303.15 K, m1 = 0.01107 | 0.1049 | –
303.15 K, m1 = 0.01172 | 0.1117 | –
303.15 K, m1 = 0.01245 | 0.1161 | –
303.15 K, m1 = 0.01285 | 0.1192 | –
303.15 K, m1 = 0.01328 | 0.1216 | –
303.15 K, m1 = 0.01374 | 0.1236 | –
303.15 K, m1 = 0.01423 | 0.1258 | –
303.15 K, m1 = 0.01476 | 0.127 | –
303.15 K, m1 = 0.01533 | 0.1296 | –
303.15 K, m1 = 0.01594 | 0.1313 | –
303.15 K, m1 = 0.01661 | 0.1328 | –
303.15 K, m1 = 0.01733 | 0.1347 | –
303.15 K, m1 = 0.01812 | 0.1365 | –
303.15 K, m1 = 0.01898 | 0.1386 | –
303.15 K, m1 = 0.01993 | 0.141 | –
308.15 K, m1 = 0.00994 | 0.1048 | –
308.15 K, m1 = 0.01047 | 0.1099 | –
308.15 K, m1 = 0.01105 | 0.1157 | –
308.15 K, m1 = 0.0117 | 0.1216 | –
308.15 K, m1 = 0.01243 | 0.1282 | –
308.15 K, m1 = 0.01283 | 0.1315 | –
308.15 K, m1 = 0.01326 | 0.1349 | –
308.15 K, m1 = 0.01372 | 0.1375 | –
308.15 K, m1 = 0.01421 | 0.1402 | –
308.15 K, m1 = 0.01473 | 0.1421 | –
308.15 K, m1 = 0.0153 | 0.1447 | –
308.15 K, m1 = 0.01591 | 0.1463 | –
308.15 K, m1 = 0.01658 | 0.1485 | –
308.15 K, m1 = 0.0173 | 0.151 | –
308.15 K, m1 = 0.01809 | 0.153 | –
308.15 K, m1 = 0.01895 | 0.1563 | –
308.15 K, m1 = 0.0199 | 0.1591 | –
313.15 K, m1 = 0.01045 | 0.1198 | –
313.15 K, m1 = 0.01103 | 0.1258 | –
313.15 K, m1 = 0.01168 | 0.1323 | –
313.15 K, m1 = 0.01241 | 0.14 | –
313.15 K, m1 = 0.01281 | 0.1439 | –
313.15 K, m1 = 0.01324 | 0.1478 | –
313.15 K, m1 = 0.01369 | 0.1515 | –
313.15 K, m1 = 0.01418 | 0.155 | –
313.15 K, m1 = 0.01471 | 0.1577 | –
313.15 K, m1 = 0.01527 | 0.1602 | –
313.15 K, m1 = 0.01589 | 0.1631 | –
313.15 K, m1 = 0.01655 | 0.1654 | –
313.15 K, m1 = 0.01727 | 0.168 | –
313.15 K, m1 = 0.01805 | 0.1707 | –
313.15 K, m1 = 0.01891 | 0.1726 | –
318.15 K, m1 = 0.01043 | 0.1298 | –
318.15 K, m1 = 0.01101 | 0.1366 | –
318.15 K, m1 = 0.01165 | 0.1438 | –
318.15 K, m1 = 0.01238 | 0.1522 | –
318.15 K, m1 = 0.01278 | 0.1567 | –
318.15 K, m1 = 0.01321 | 0.1612 | –
318.15 K, m1 = 0.01367 | 0.166 | –
318.15 K, m1 = 0.01415 | 0.1704 | –
318.15 K, m1 = 0.01468 | 0.1739 | –
318.15 K, m1 = 0.01524 | 0.177 | –
318.15 K, m1 = 0.01585 | 0.1806 | –
318.15 K, m1 = 0.01651 | 0.1838 | –
318.15 K, m1 = 0.01723 | 0.1864 | –
318.15 K, m1 = 0.01802 | 0.1895 | –
318.15 K, m1 = 0.01887 | 0.1932 | –
318.15 K, m1 = 0.01983 | 0.1976 | –
323.15 K, m1 = 0.0104 | 0.1411 | –
323.15 K, m1 = 0.01098 | 0.1472 | –
323.15 K, m1 = 0.01163 | 0.1554 | –
323.15 K, m1 = 0.01236 | 0.1644 | –
323.15 K, m1 = 0.01275 | 0.169 | –
323.15 K, m1 = 0.01318 | 0.1743 | –
323.15 K, m1 = 0.01363 | 0.1794 | –
323.15 K, m1 = 0.01412 | 0.1851 | –
323.15 K, m1 = 0.01465 | 0.1902 | –
323.15 K, m1 = 0.01521 | 0.1949 | –
323.15 K, m1 = 0.01582 | 0.1998 | –
323.15 K, m1 = 0.01648 | 0.2018 | –
323.15 K, m1 = 0.01719 | 0.2068 | –
323.15 K, m1 = 0.01798 | 0.2118 | –
323.15 K, m1 = 0.01883 | 0.2128 | –
323.15 K, m1 = 0.01977 | 0.2199 | –
